From the NIST ThermoML archive (doi:10.1016/j.jct.2008.09.002)

Tests used:
[1] = molar heat capacity at constant pressure; xn = mol fraction of the nth substance listed; settings: 101.3 kPa, Liquid, Small sample (50 mg) DSC
[2] = xn = mol fraction of the nth substance listed; settings: 101.3 kPa, Liquid, Vibrating tube method

C[N+](=O)[O-] [nitromethane] + CCCCn1cc[n+](C)c1.F[B-](F)(F)F
Settings	mass density [kg/m3]	molar heat capacity at constant pressure [J/K/mol]
[1], 293.15 K, x2 = 0.0525	–	119.2
[1], 293.15 K, x2 = 0.1029	–	131.6
[1], 293.15 K, x2 = 0.1943	–	154.9
[1], 293.15 K, x2 = 0.2941	–	180.5
[1], 293.15 K, x2 = 0.3911	–	205.4
[1], 293.15 K, x2 = 0.5609	–	248.8
[1], 293.15 K, x2 = 0.7062	–	285.8
[1], 293.15 K, x2 = 0.7578	–	299
[1], 293.15 K, x2 = 0.897	–	334.5
[1], 293.15 K, x2 = 0.9436	–	346.4
[1], 293.15 K, x2 = 0.9716	–	353.6
[1], 298.15 K, x2 = 0.0525	–	119.6
[1], 298.15 K, x2 = 0.1029	–	132.1
[1], 298.15 K, x2 = 0.1943	–	155.6
[1], 298.15 K, x2 = 0.2941	–	181.5
[1], 298.15 K, x2 = 0.3911	–	206.7
[1], 298.15 K, x2 = 0.5609	–	250.6
[1], 298.15 K, x2 = 0.7062	–	288.1
[1], 298.15 K, x2 = 0.7578	–	301.4
[1], 298.15 K, x2 = 0.897	–	337.4
[1], 298.15 K, x2 = 0.9436	–	349.5
[1], 298.15 K, x2 = 0.9716	–	356.7
[1], 303.15 K, x2 = 0.0525	–	120
[1], 303.15 K, x2 = 0.1029	–	132.7
[1], 303.15 K, x2 = 0.1943	–	156.4
[1], 303.15 K, x2 = 0.2941	–	182.5
[1], 303.15 K, x2 = 0.3911	–	208
[1], 303.15 K, x2 = 0.5609	–	252.3
[1], 303.15 K, x2 = 0.7062	–	290.2
[1], 303.15 K, x2 = 0.7578	–	303.7
[1], 303.15 K, x2 = 0.897	–	340
[1], 303.15 K, x2 = 0.9436	–	352.3
[1], 303.15 K, x2 = 0.9716	–	359.5
[1], 308.15 K, x2 = 0.0525	–	120.5
[1], 308.15 K, x2 = 0.1029	–	133.3
[1], 308.15 K, x2 = 0.1943	–	157.1
[1], 308.15 K, x2 = 0.2941	–	183.3
[1], 308.15 K, x2 = 0.3911	–	209.1
[1], 308.15 K, x2 = 0.5609	–	253.8
[1], 308.15 K, x2 = 0.7062	–	292.1
[1], 308.15 K, x2 = 0.7578	–	305.6
[1], 308.15 K, x2 = 0.897	–	342.3
[1], 308.15 K, x2 = 0.9436	–	354.7
[1], 308.15 K, x2 = 0.9716	–	362
[1], 313.15 K, x2 = 0.0525	–	121
[1], 313.15 K, x2 = 0.1029	–	133.9
[1], 313.15 K, x2 = 0.1943	–	157.8
[1], 313.15 K, x2 = 0.2941	–	184.1
[1], 313.15 K, x2 = 0.3911	–	210.1
[1], 313.15 K, x2 = 0.5609	–	255.1
[1], 313.15 K, x2 = 0.7062	–	293.7
[1], 313.15 K, x2 = 0.7578	–	307.3
[1], 313.15 K, x2 = 0.897	–	344.2
[1], 313.15 K, x2 = 0.9436	–	356.8
[1], 313.15 K, x2 = 0.9716	–	364.1
[1], 318.15 K, x2 = 0.0525	–	121.4
[1], 318.15 K, x2 = 0.1029	–	134.3
[1], 318.15 K, x2 = 0.1943	–	158.3
[1], 318.15 K, x2 = 0.2941	–	184.7
[1], 318.15 K, x2 = 0.3911	–	210.9
[1], 318.15 K, x2 = 0.5609	–	256.2
[1], 318.15 K, x2 = 0.7062	–	295.1
[1], 318.15 K, x2 = 0.7578	–	308.7
[1], 318.15 K, x2 = 0.897	–	345.9
[1], 318.15 K, x2 = 0.9436	–	358.5
[1], 318.15 K, x2 = 0.9716	–	365.8
[2], 293.15 K, x2 = 0.1007	1167	–
[2], 293.15 K, x2 = 0.2066	1181.1	–
[2], 293.15 K, x2 = 0.2597	1185.9	–
[2], 293.15 K, x2 = 0.3069	1189.3	–
[2], 293.15 K, x2 = 0.3957	1194.4	–
[2], 293.15 K, x2 = 0.41	1195	–
[2], 293.15 K, x2 = 0.4866	1198.1	–
[2], 293.15 K, x2 = 0.5058	1198.7	–
[2], 293.15 K, x2 = 0.6016	1201.5	–
[2], 293.15 K, x2 = 0.6455	1202.6	–
[2], 293.15 K, x2 = 0.6837	1203.4	–
[2], 293.15 K, x2 = 0.7793	1205.1	–
[2], 293.15 K, x2 = 0.8867	1206.5	–
[2], 298.15 K, x2 = 0.1007	1161.3	–
[2], 298.15 K, x2 = 0.2066	1176.1	–
[2], 298.15 K, x2 = 0.2597	1181.1	–
[2], 298.15 K, x2 = 0.3069	1184.7	–
[2], 298.15 K, x2 = 0.3957	1190	–
[2], 298.15 K, x2 = 0.41	1190.6	–
[2], 298.15 K, x2 = 0.4866	1193.9	–
[2], 298.15 K, x2 = 0.5058	1194.6	–
[2], 298.15 K, x2 = 0.6016	1197.5	–
[2], 298.15 K, x2 = 0.6455	1198.6	–
[2], 298.15 K, x2 = 0.6837	1199.5	–
[2], 298.15 K, x2 = 0.7793	1201.3	–
[2], 298.15 K, x2 = 0.8867	1202.9	–
[2], 303.15 K, x2 = 0.1007	1155.7	–
[2], 303.15 K, x2 = 0.2066	1171.1	–
[2], 303.15 K, x2 = 0.2597	1176.4	–
[2], 303.15 K, x2 = 0.3069	1180.1	–
[2], 303.15 K, x2 = 0.3957	1185.6	–
[2], 303.15 K, x2 = 0.41	1186.3	–
[2], 303.15 K, x2 = 0.4866	1189.7	–
[2], 303.15 K, x2 = 0.5058	1190.4	–
[2], 303.15 K, x2 = 0.6016	1193.5	–
[2], 303.15 K, x2 = 0.6455	1194.7	–
[2], 303.15 K, x2 = 0.6837	1195.6	–
[2], 303.15 K, x2 = 0.7793	1197.5	–
[2], 303.15 K, x2 = 0.8867	1199.2	–
[2], 308.15 K, x2 = 0.1007	1150	–
[2], 308.15 K, x2 = 0.2066	1166	–
[2], 308.15 K, x2 = 0.2597	1171.5	–
[2], 308.15 K, x2 = 0.3069	1175.4	–
[2], 308.15 K, x2 = 0.3957	1181.2	–
[2], 308.15 K, x2 = 0.41	1181.9	–
[2], 308.15 K, x2 = 0.4866	1185.5	–
[2], 308.15 K, x2 = 0.5058	1186.3	–
[2], 308.15 K, x2 = 0.6016	1189.5	–
[2], 308.15 K, x2 = 0.6455	1190.8	–
[2], 308.15 K, x2 = 0.6837	1191.7	–
[2], 308.15 K, x2 = 0.7793	1193.7	–
[2], 308.15 K, x2 = 0.8867	1195.6	–
[2], 313.15 K, x2 = 0.1007	1144.4	–
[2], 313.15 K, x2 = 0.2066	1161.1	–
[2], 313.15 K, x2 = 0.2597	1166.8	–
[2], 313.15 K, x2 = 0.3069	1170.9	–
[2], 313.15 K, x2 = 0.3957	1176.9	–
[2], 313.15 K, x2 = 0.41	1177.6	–
[2], 313.15 K, x2 = 0.4866	1181.4	–
[2], 313.15 K, x2 = 0.5058	1182.2	–
[2], 313.15 K, x2 = 0.6016	1185.5	–
[2], 313.15 K, x2 = 0.6455	1186.9	–
[2], 313.15 K, x2 = 0.6837	1187.9	–
[2], 313.15 K, x2 = 0.7793	1190	–
[2], 313.15 K, x2 = 0.8867	1191.9	–
[2], 318.15 K, x2 = 0.1007	1138.7	–
[2], 318.15 K, x2 = 0.2066	1156.1	–
[2], 318.15 K, x2 = 0.2597	1162.1	–
[2], 318.15 K, x2 = 0.3069	1166.3	–
[2], 318.15 K, x2 = 0.3957	1172.5	–
[2], 318.15 K, x2 = 0.41	1173.3	–
[2], 318.15 K, x2 = 0.4866	1177.2	–
[2], 318.15 K, x2 = 0.5058	1178	–
[2], 318.15 K, x2 = 0.6016	1181.6	–
[2], 318.15 K, x2 = 0.6455	1183	–
[2], 318.15 K, x2 = 0.6837	1184	–
[2], 318.15 K, x2 = 0.7793	1186.3	–
[2], 318.15 K, x2 = 0.8867	1188.3	–
